Here are results for ten compounds from ChEMBL document CHEMBL1130697, “C24 and C25 substituted marcfortine A derivatives” (Bioorg Med Chem Lett, 1998).

SMILES strings stand for the structures. The source made the active and inactive calls. The calls are words filed in the database; no cut-off is given here.

The first assay has as its system Gerbillinae. In words: Anthelmintic activity against immunosuppressed Mongolian gerblis(jirds) inoculated with Haemonchus contortus and Trichostrongylus colubriform; not active. It counts as functional.
Take `CN1C(=O)[C@@]23CCCCN2C[C@@]12C[C@@]1(C(=O)Nc4c1ccc1c4OCC(O)C(C)(C)O1)C(C)(C)[C@H]2C3` (stereo not given in full): the result was inactive.
For the compound `CN1C(=O)[C@@]23CCCCN2C[C@@]12C[C@@]1(C(=O)Nc4c1ccc1c4OCC(C)(O)C(C)(C)O1)C(C)(C)[C@H]2C3` (stereo not given in full), the result was inactive.
The same measure, in the same setting: to `CN1C(=O)[C@@]23CCCCN2C[C@@]12C[C@@]1(C(=O)Nc4c1ccc(O)c4O)C(C)(C)[C@H]2C3` belongs “inactive”; to `CC1=COc2c(ccc3c2NC(=O)[C@@]32C[C@@]34CN5CCCC[C@]5(C[C@@H]3C2(C)C)C(=O)N4C)OC1(C)C`, “inactive”.
`CN1C(=O)[C@@]23CCCCN2C[C@@]12C[C@@]1(C(=O)Nc4c1ccc1c4OC=CC(C)(C)O1)C(C)(C)[C@H]2C3`: the result was inactive.
The same measure, in the same setting: to `C=C1COc2ccc3c(c2OC1)NC(=O)[C@@]31C[C@@]23CN4CCCC[C@]4(C[C@@H]2C1(C)C)C(=O)N3C` belongs “inactive”; to `CN1C(=O)[C@]23C[C@@H]4C(C)(C)[C@@]5(C[C@@]41CN2CC[C@@]3(C)O)C(=O)Nc1c5ccc2c1OC=CC(C)(C)O2`, “inactive”.
For `CN1C(=O)[C@@]23CCCCN2C[C@@]12C[C@@]1(C(=O)Nc4c1ccc1c4OCC4(CO4)C(C)(C)O1)C(C)(C)[C@H]2C3` (stereo not given in full), the result was inactive.
Same read-out and setting: next, `CN1C(=O)[C@@]23CCCCN2C[C@@]12C[C@@]1(C(=O)Nc4c1ccc1c4OCC(=O)C(C)(C)O1)C(C)(C)[C@H]2C3`: “inactive”.

Another assay deals with Gerbillinae. The assay can be described thus: Anthelmintic activity against immunosuppressed Mongolian gerblis(jirds) inoculated with Haemonchus contortus and Trichostrongylus colubriform;found to be active. It counts as functional.
With `C=C1COc2c(ccc3c2NC(=O)[C@@]32C[C@@]34CN5CCCC[C@]5(C[C@@H]3C2(C)C)C(=O)N4C)OC1(C)C`, the outcome was Active.
